{"source": "patent US6761884B1", "about": "“Vectors including foreign genes and negative selective markers” (The United States of America as represented by the …, priority 1991, dated 2004)", "key": {"untransduced WP4 cells": {"system": "untransduced WP4 cells", "experiment": "Ganciclovir killing of untransduced WP4 cells, methylene blue staining", "format": "cell-based, murine", "details": "24-well plate, ganciclovir 0.01-100 uM, stained at 5 to 7 days", "experimental": "This example employs a clone (WP4) (Asher et al., J. Inmunol, Vol. 146, pg. 3227 (1991)) of a murine tumor cell line MCA205 (Wexler et al., J. Natl. Canc. Inst., Vol. 63, pg. 1393 (1979)) for assessing the utility of the HSV-TK gene in a “suicide” system.\nTransduced “selected” cells are then plated in 24-well tissue culture plate at 1-2.5×10^4 cells per well. After 24 hrs. of culture, ganciclovir is added in concentrations ranging from 0.01-100 uM, the cells are monitored for growth and all wells are stained in methylene blue when the control wells (no ganciclovir added) are confluent (at 5 to 7 days). Complete killing of transduced selected cells is observed at concentrations from 0.1 to 1.0 uM of ganciclovir, while untransduced cells are killed at concentrations of 100 uM or greater."}, "[1]": {"system": "WP4 tumor cells containing the HSV-TK gene", "experiment": "Subcutaneous tumors from WP4 cells containing the HSV-TK gene in mice, ganciclovir treatment", "format": "in vivo, C57BL/6 or BNX mice", "experimental": "(§1) WP4 tumor cells form tumors in C57BL/6 or BNX mice when injected subcutaneously. The number of cells required for tumor formation will vary depending of the strain of mouse used. C57BL/6 mice require 5×10^6-1×10^7 cells for tumor formation in 10-14 days. BNX mice require 1-5×10^4 cells for tumor formation in 10-14 days. Tumor cells are suspended in PBS and injected subcutaneously into the hind flank in a 0.5 ml volume. Five to ten days after tumor inoculation, ganciclovir is administered intraperitoneally twice daily for 5 days. A 2-5 mg/ml solution of ganciclovir prepared in serum-free medium (RPMI 1640, DMEM, or other) is used to achieve a dose of 125-150 mg/kg. Animals are monitored and tumor measurements made twice weekly.\n(§2) At the time of ganciclovir administration, tumors are palpable, but unmeasurable. Tumors arising from untransduced WP4 cells reach a size of 2.0-2.5 cm^3 in 40-45 days with or without ganciclovir administration. Tumor cells containing the HSV-TK gene initially form palpable tumors then regress completely and become undetectable within 10-20 days after the start of ganciclovir treatment. Complete, long term tumor ablation is observed in 60-80% of mice having received selected cells plus ganciclovir therapy."}, "[2]": {"system": "untransduced WP4 tumor cells", "experiment": "Subcutaneous tumors from untransduced WP4 cells in mice, ganciclovir treatment", "format": "in vivo, C57BL/6 or BNX mice", "details": "in 40-45 days, with or without ganciclovir administration (125-150 mg/kg i.p. twice daily for 5 days)", "experimental": "as §1, §2"}}}
{"smiles": "Nc1nc(O)c2ncn(COC(CO)CO)c2n1", "note": "[ganciclovir]", "values": [{"measurement": "Concentration at which untransduced cells are killed", "setting": "untransduced WP4 cells", "result": "≥ 100", "unit": "µM"}, {"measurement": "Time after start of ganciclovir treatment by which tumors regress completely and become undetectable", "setting": "[1]; 125-150 mg/kg intraperitoneally twice daily for 5 days, started 5-10 days after tumor inoculation", "result": "10 to 20", "unit": "days"}, {"measurement": "Mice with complete, long term tumor ablation", "setting": "[1]; mice having received selected cells plus ganciclovir therapy, 125-150 mg/kg i.p. twice daily for 5 days", "result": "60-80%"}, {"measurement": "Tumor size reached by tumors arising from untransduced WP4 cells", "setting": "[2]", "result": "2.0-2.5 cm^3"}]}
